Measured values as given in patent US8722729B2, “Unsaturated fatty acid monoesters and diesters on ascorbic acid and cosmetic uses thereof” (Pierre Fabre Dermo-Cosmetique, priority 2009, dated 2014).
Marks after values point to notes of the source that are not given here.

Assays:
MMP-3 = assay: Gene expression of MMP-3 in human dermal fibroblasts treated with H2O2 (real-time PCR); type: cell-based; conditions: for RQ (relative quantity of mRNA) MMP-3 / % Inhibition of the level of mRNA expression MMP-3: 3 μM; for RQ (relative quantity of mRNA) MMP-3: senescent fibroblasts stimulated with H2O2, non-treated control = 1; for % Inhibition of the level of mRNA expression MMP-3: vs H2O2 alone
Procedure: (§1) To evidence the activity of the compounds of general formula (I) against skin ageing and against inflammation, the effect of these compounds was measured on the gene expression of MMP-1, MMP-3 and IL8 in human dermal fibroblasts treated with H2O2, thereby mimicking the process of cellular senescence. The effect of these compounds of general formula (I) was also measured on the synthesis of hyaluronic acid and on hyaluronidase activity. The stimulation of the synthesis of hyaluronic acid also allows skin hydration to be improved and/or restored (Bissett D L. J. Cosmet. Dermatol. 2006 Dec. 5(4): 309-15. Glucosamine: an ingredient with skin and other benefits).
(§2) Human dermal fibroblasts (isolated from discarded operative skin) were cultured in DMEM culture medium+10% FCS. The cells were pre-treated with vitamin C and the compound to be tested for 16 h at 37° C. and then stimulated with H2O2. The cells were then replaced in DMEM with vitamin C and dioctadeca-9,12-dienoate of (9Z,9′Z,12Z,12′Z)-2-(2,2-dimethyl-1,3-dioxolan-4-yl)-5-oxo-2,5-dihydrofuran-3,4-diyl. 72 hours after ending of stress, the fibroblasts entered into senescence: the senescent fibroblasts no longer proliferate but remain metabolically active (Hayflick, J. Invest. Dermatol., 73; 8-14, 1979). The cells were then lysed with the lysis buffer of the RNeasy® kit (QIAGEN).
(§3) The extracted RNAs were converted to complementary DNA following the indications of the Quantitect Reverse Transcription kit by Qiagen. Real-time PCR analyses were conducted using an iQ cycler fluorescence thermocycler (BIO-RAD).
(§4) The level of expression of the mRNAs coding for MMP-1, MMP-3, IL8 was analyzed using the real-time PCR technique. To normalize the level of expression of the gene of interest, the analysis strategy developed by Vandesompela et al., Genome Biol. 3: RESEARCH0034 (2002) was chosen. […] In our model, the three tested reference genes were the following: β-actin (Human β-actin), GAPDH (Human glyceraldehyde-3-phosphate dehydrogenase) and YWHAZ (Tyrosine-3-monooxygenase, tryptopgan-5-monooxygenase activation protein zeta polypeptide).
(§5) The first step normalizes the Ct values obtained for the gene of interest in relation to the Ct values obtained for the reference gene, for each experimental condition.
(§6) The following was therefore calculated: ΔCt=Ctgene of interest−Ctreference gene
(§7) The second step of the calculation determines the variation in the number of copies of the gene of interest during treatment. To do so ΔΔCt is calculated: ΔΔCt=ΔCtnon-treated NHF−ΔCttreated NHF
(§8) For the non-treated control, this QR is therefore equal to 1. It is then possible to calculate an induction or inhibition factor of the gene of interest compared with this control.
(§9) Statistical analysis was performed using a test called “one-way ANOVA”. Variance analysis using the Dunnett test then allows the comparing, for each of the analyzed genes, of the ΔCt values of normal adult fibroblasts with the compounds in the presence of H2O2 in both cases. This test then gives the “p value” characterizing the significance of the results obtained for both conditions The degree of significance was established as follows: • significant for p<0.05(*) • very significant for p<0.005(**) • highly significant for p<0.001(***) • non-significant for p>0.05. […]
(§10) It is also possible to calculate percentage inhibition of the level of expression of the different mRNAs by the active ingredients to be evaluated, using the formula: […]

IL-8 = assay: Gene expression of IL8 in human dermal fibroblasts treated with H2O2 (real-time PCR); type: cell-based; conditions: for RQ (relative quantity of mRNA) IL-8 / % Inhibition of the level of mRNA expression IL-8: 3 μM; for RQ (relative quantity of mRNA) IL-8: senescent fibroblasts stimulated with H2O2, non-treated control = 1; for % Inhibition of the level of mRNA expression IL-8: vs H2O2 alone
Procedure: as §1, §2, §3, §4, §5, §6, §7, §8, §9, §10

B16-F10 cells = assay: Assay of melanin in B16-F10 cells (colorimetric, α-MSH stimulated); type: cell-based, murine; conditions: for inhibition at 10 µM / inhibition at 20 µM / inhibition at 50 µM / inhibition at 100 µM: B16-F10, 72 hours, read-out: Percentage inhibition of intracellular melanin
Procedure: Similarly, to evidence the depigmenting activity of the compounds of general formula (I) according to the invention, the effect of these compounds was measured on the synthesis of melanin by colorimetric assay on a cell line of murine melanomas: line B16-F10.
This is a test to measure the synthesis of melanin by colorimetric assay on a cell line of murine melanomas: line B16-F10. This test allows the evaluation of the depigmenting property of active ingredients.
The B16-F10 cells were seeded onto 96-well plates in DMEM medium supplemented with FCS (fetal calf serum) and incubated 24 hours at 37° C., 5% CO2. The cells were then stimulated with α-MSH (to stimulate the synthesis of melanin, the stimulation observed was about 150%) and treated 72 hours with the active ingredients to be tested. Each concentration of active ingredient was tested at least in triplicate. Total melanin followed by intracellular melanin dissolved in lysis buffer were then assayed by absorbency reading at 405 nm. The total proteins were determined in the lysate and the results are expressed in mg melanin/mg proteins. The percentage activity was calculated as follows: […]
A negative value indicates an inhibition, whereas a positive value indicates induced synthesis of melanin.

keratinocytes HaCaT = assay: Assay of the synthesis of hyaluronic acid in HaCaT keratinocytes (ELISA); type: cell-based, human; conditions: for Percentage stimulation of the synthesis of hyaluronic acid: 48 h, vs control
Procedure: The keratinocytes HaCaT are cultured in DMEM culture medium+10% FCS. The cells are treated with the active ingredients to be tested (Table 1) for 48 h at 37° C. The synthesized hyaluronic acid (HA) is assayed in the culture medium using an ELISA type kit (Echelon®).
The percentage activity was determined as follows • percentage variation compared with the control %p/C=([HA]active ingred./[HA]control×100)−100 4.4.2 Results of the Assay of Hyaluronic Acid on the Line of Human Keratinocytes HaCaT

[1] = system: Human dermal papilla cells; assay: In vitro stimulation of the proliferation of dermal papilla cells (BrdU incorporation); type: cell-based; conditions: 12.5 μM; 60 h; best activity
Procedure: Human dermal papilla cells (Promocell) were placed in culture and held in early passage culture in DMEM medium supplemented with 10% FCS. They were then seeded in a 96-well plate in DMEM medium supplemented with 10% FCS for 12 h. The culture medium was replaced by serum-free DMEM medium then by DMEM supplemented with 1% FCS and molecules 1, 2, 3 and 4 at the different tested concentrations After incubation for 60 h, cell proliferation was evaluated by incorporation of BrdU.
The diagrams in appended FIG. 1 show the increase in BrdU incorporation and the stimulated cellular proliferation of the cells in the presence of the different molecules (as a percent of the control).

In the case of `O=C1O[C@H]([C@@H](O)CO)C(O)=C1O` [Ascorbic acid, ascorbic acid], the “RQ (relative quantity of mRNA) MMP-3” value (MMP-3) is reported as 3.5, the “% Inhibition of the level of mRNA expression MMP-3” value (MMP-3) is reported as 50* % and the “RQ (relative quantity of mRNA) IL-8” value (IL-8) is reported as 1.2. The “% Inhibition of the level of mRNA expression IL-8” value (IL-8) was 92*** %, the inhibition at 10 µM (B16-F10 cells; Mus musculus) was -5% and the inhibition at 20 µM (B16-F10 cells; Mus musculus) was 7%. The inhibition at 50 µM (B16-F10 cells; Mus musculus) was 5%, the inhibition at 100 µM (B16-F10 cells; Mus musculus) was 22% and the “Percentage stimulation of the synthesis of hyaluronic acid” value (from here on “Percentage stimulation”) (keratinocytes HaCaT; 30 μM) was 9%. The “Percentage stimulation” value (keratinocytes HaCaT; 300 μM) was 19% and the “Effect on the synthesis of hyaluronic acid” value (keratinocytes HaCaT; 30 and 300 μM) was “no effect”.
In the case of `CCCCC/C=C\C/C=C\CCCCCCCC(=O)OC1=C(OC(=O)CCCCCCC/C=C\C/C=C\CCCCC)C(C2COC(C)(C)O2)OC1=O` (centres unmarked) [Molecule 1, diactodeca-9,12-dienoate of (9Z,9′Z,12Z,12′Z)-2-(2,2-dimethyl-1,3-dioxolan-4-yl)-5-oxo-2,5-dihydrofuran-3,4-diyl], the “Inhibition of MMP3 expression compared with ascorbic acid” value (MMP-3) is reported as “more substantially inhibits the expression of MMP1, MMP3 and IL-8 than ascorbic acid”, the “RQ (relative quantity of mRNA) MMP-3” value (MMP-3) is reported as 1.9 and the “% Inhibition of the level of mRNA expression MMP-3” value (MMP-3) is reported as 81*** %. For the same compound, the “Inhibition of IL-8 expression compared with ascorbic acid” value (IL-8) was “more substantially inhibits the expression of MMP1, MMP3 and IL-8 than ascorbic acid”, the “RQ (relative quantity of mRNA) IL-8” value (IL-8) was 0.9 and the “% Inhibition of the level of mRNA expression IL-8” value (IL-8) was 102*** %. The “Inhibition of the synthesis of intracellular melanin compared with vitamin C” value (B16-F10 cells) was “greater than that of vitamin C”, the inhibition at 10 µM (B16-F10 cells; Mus musculus) was 9% and the inhibition at 20 µM (B16-F10 cells; Mus musculus) was 21%. For the same compound, the inhibition at 50 µM (B16-F10 cells; Mus musculus) was 41%, the inhibition at 100 µM (B16-F10 cells; Mus musculus) was 71% and the IC50 (B16-F10 cells; Mus musculus, B16-F10, α-MSH stimulated, read-out: IC50 intracellular melanin) was 67 µM. For the same compound, the “Percentage stimulation” value (keratinocytes HaCaT; 2 μM) was 132%, the “Percentage stimulation” value (keratinocytes HaCaT; 20 μM) was 70% and the “Proliferation of the cells of the dermal papilla (percent of the control)” value [1] was 169%.
